# Measured values reported in patent US10479986B2, “Nucleic acid constructs and methods for labeling and detecting nucleosomal DNA modifications” (THE BROAD INSTITUTE, INC., priority 2016, dated 2019).
# Legend:
# [1] = tested on: H3K27me3 levels in Pfeiffer cells; assay: Mint-ChIP global H3K27me3 levels (ratio to H3 reads) after GSK126; assay type: cell-based; settings: after 72 hr
# Method: (§1) FIG. 20 provides a set of heat maps comparing H3K27me3 (A) and H3K27ac (B) levels in different cell lines treated with GSK126, as quantified in accordance with certain example embodiments. The experiments were performed using two different MNase concentrations.
# (§2) The methods disclosed herein were used to quantitatively compare H3K27me3 and H3K27ac landscapes in these three cell lines. First, the global modification levels based on the ratio of H3K27me3 (or H3K27ac) reads to H3 reads were quantified. H3K27me3 levels were 5.1-fold greater in Pfeiffer than the other cell lines, consistent with its EZH2 activating mutation (FIG. 20).
# (§3) The respective mutant lines were also treated with the EZH2 inhibitor GSK126, which reduced global H3K27me3 levels (Pfeiffer: 3.4-fold; SKM-1: 3.8-fold; and Toledo: 1.4-fold after 72 hr). Pfeiffer cells, which had the largest absolute decrease in H3K27me3, were the most sensitive to GSK126 treatment (Pfeiffer: 56±11% cell death after 3 days; SKM-1: 15±10%; and Toledo: 2±15%; FIG. 24) (McCabe et al., 2012a). H3K27me3 peaks were called in the naive and drug treated cell lines. Although treatment-associated changes in H3K27me3 are masked by conventional normalization, these changes are readily evident using the quantitative normalization inherent to the methods disclosed herein (FIG. 23). Thus, the methods disclosed herein can quantify differences in global chromatin landscapes of cancer cells representing different genotypes or drug treatments.
# [2] = tested on: H3K27me3 levels in SKM-1 cells; assay: as above; assay type: cell-based; settings: SKM-1, after 72 hr
# Method: as §1, §2, §3
# [3] = tested on: H3K27me3 levels in Toledo cells; assay: as above; assay type: cell-based; settings: after 72 hr
# Method: as §1, §2, §3
# [4] = tested on: H3K27ac levels in K562 cells; assay: Multiplexed barcoded ChIP-seq (Mint-ChIP), H3K27ac reads normalized to total H3 reads; assay type: cell-based, human; settings: 48 hours treatment
# Excerpt: (§4) FIG. 12 is a schematic showing an example method for quantitatively normalizing sequencing data results, in accordance with certain example embodiments. The control or drug treated cells are indexed, pooled, and then split for parallel ChIP assays. The ratio between H3K27me3 reads and H3 reads is used to compare global H3K27me3 levels between sample and normalized corresponding profiles.
# (§5) FIG. 14 is a set of bar graphs showing global modification levels inferred from Western blot (top) or in accordance with certain example embodiments (bottom). The respective methods were applied in parallel to the same sample of […] cells treated for 48 hours with the indicated inhibitors. The data are shown as a mean±SD of n=3 independent experiments (symbols indicate values from independent experiments).
# (§6) First, procedures for simultaneously lysing and digesting chromatin from small numbers of K562 cells were modified. […]
# (§7) Algorithms were developed to process Mint-ChIP seq results. First, the seq reads are de-multiplexed by index #2 to yield separate read files for each ChIP assay. Each of these read files is then further de-multiplexed by index #1 (T7-adapter barcode) to yield separate files for each sample. […] More than 90% of reads were successfully assigned to one of the T7-adapter barcodes (FIG. 5). […]
# [5] = tested on: H3K27me3 levels in K562 cells; assay: Multiplexed barcoded ChIP-seq (Mint-ChIP), H3K27me3 reads normalized to total H3 reads; assay type: cell-based, human; settings: 48 hours treatment
# Excerpt: as §4, §5, §6, §7
# [6] = tested on: H3K27me3 levels in K562 cells; assay: Western blot of H3K27me3 in MNase digested chromatin; assay type: cell-based, human; settings: 48 hr of treatment
# Excerpt: It is noted the methods disclosed herein are preferential to open regions, as these are more sensitive to MNase digestion. This is evident in the relatively higher proportion of H3 reads that align to euchromatic regions (2-fold enrichment; compare to 1.2-fold enrichment in conventional ChIP-seq). These ratios are small relative to enrichments in ChIP-seq peaks, which range from 5- to 100-fold. However, they could account for increased sensitivity to early changes in H3K27me3 if these were also preferential to euchromatin. To test this, Western blots to quantify H3K27me3 levels were used in MNase digested chromatin from K562 cells treated with GSK126.
# [7] = tested on: Toledo cells; assay: Viable cell counts following GSK126 treatment; assay type: cell-based; settings: after 3 days
# Method: (§8) FIG. 24 provides a set of bar plots depicting viable cell counts following 72 hour GSK126 treatment of Pfeiffer, SKM-1, and Toledo. The data are shown as mean±SD of technical triplicates×n=2 independent experiments (*p<0.05, **p<0.01, and ****p<0.0001).
# as §3
# [8] = tested on: SKM-1 cells; assay: Viable cell counts following GSK126 treatment; assay type: cell-based; settings: SKM-1, after 3 days
# Method: as §8, §3
# [9] = tested on: Pfeiffer cells; assay: Viable cell counts following GSK126 treatment; assay type: cell-based; settings: after 3 days
# Method: as §8, §3
# [10] = tested on: H3K27ac levels in K562 cells; assay: Western blot of H3K27ac levels in treated K562 cells; assay type: cell-based, human; settings: 48 hr treatment, vs DMSO control
# Excerpt: (§9) FIG. 13 is a western blot showing H3K27ac and H3K27me3 levels in K562 cells following treatment with the p300 inhibitor C646 or the EZH2 inhibitor […] (compared to a DMSO control). The total H3 is shown as loading control.
# Data are typically normalized based on read numbers (“reads per million” or RPM). This presents complications when comparing between samples. To address this shortcoming, exogenous spike-in controls or semisynthetic standards were recently introduced (Bonhoure et al., 2014; Grzybowski et al., 2015; Orlando et al., 2014). The methods disclosed herein were assessed to determine whether the consistency of pooled sample processing could allow the capture of global modification levels without spike-in controls. To this end, an additional IP was included with antibody to total H3, which was used as a normalization factor for the modifications (FIG. 12). The approach for measuring global changes was tested using small molecule inhibitors. K562 cells were treated with the p300 inhibitor C646 or the EZH2 inhibitor GSK126 (Ferrari et al., 2013; McCabe et al., 2012a). Western blots confirmed that H3K27ac levels were reduced by the acetyltransferase inhibitor C646, […] (FIG. 13). […] After sequencing, the number of reads for H3K27ac and H3K27me3 were normalized to the number of reads for total H3.
# [11] = tested on: H3K27me3 levels in K562 cells; assay: Western blot of H3K27me3 levels in treated K562 cells (acid extracted histones); assay type: cell-based, human; settings: 48 hr treatment
# Excerpt: as §9
# Data are typically normalized based on read numbers (“reads per million” or RPM). This presents complications when comparing between samples. To address this shortcoming, exogenous spike-in controls or semisynthetic standards were recently introduced (Bonhoure et al., 2014; Grzybowski et al., 2015; Orlando et al., 2014). The methods disclosed herein were assessed to determine whether the consistency of pooled sample processing could allow the capture of global modification levels without spike-in controls. […] After sequencing, the number of reads for H3K27ac and H3K27me3 were normalized to the number of reads for total H3.
# It is noted the methods disclosed herein are preferential to open regions, as these are more sensitive to MNase digestion. This is evident in the relatively higher proportion of H3 reads that align to euchromatic regions (2-fold enrichment; compare to 1.2-fold enrichment in conventional ChIP-seq). […] To test this, Western blots to quantify H3K27me3 levels were used in MNase digested chromatin from K562 cells treated with GSK126.
# [12] = tested on: H3K4me3 levels in K562 cells; assay: Western blot of H3K4me3 levels in treated K562 cells; assay type: cell-based, human; settings: 96 hr treatment, vs DMSO
# Method: FIG. 16 are Western blots showing increased H3K4me3 levels in K562 cells following treatment with the demethylase inhibitor KDM5-C70. The total H3 is shown as loading control and n=3 experiments are shown.
# (§10) (Labelle et al., 2014). The chromatin of K562 cells treated with DMSO or KDM5-C70 for 96 hr were barcoded and pooled. H3K4me3 and total H3 were then assayed. After sequencing, normalization of the number of H3K4me3 reads to the number of H3 reads reflected global modification levels and was consistent between experiments and also with Western blot analysis (FIG. 16 and FIG. 17). […] This effect was obscured when the data were subjected to conventional RPM normalization (FIG. 18).
# [13] = tested on: H3K4me3 in K562 cells; assay: Multiplexed barcoded ChIP-seq (Mint-ChIP), H3K4me3 profiles with quantitative normalization to total H3; assay type: cell-based, human; settings: 96 hr treatment, vs DMSO
# Excerpt: FIG. 17 is a set of graphs showing global H3K4me3 levels inferred in accordance with certain example embodiments. The data are shown as ±SD of four replicates n=3 experiments are shown.
# FIG. 18 is a graph showing H3K4me3 profiles scaled by conventional or quantitative normalization.
# FIG. 19 provides a composite plot depicting average H3K4me3 in K562 cells treated with DMSO or KDM5-C70 (A) with 10 kb regions surrounding the centers of 36,875 peaks that are shown; a bar blot showing the fraction of peaks within size windows (B); and a Venn diagram showing the number of peaks detected in K562 cells treated with DMSO or KDM5-70 (C). The data were generated in accordance with certain example embodiments.
# as §10
smiles,measurement,setting,value
CC[C@H](C)n1cc(C)c2c(C(=O)NCc3c(C)cc(C)[nH]c3=O)cc(-c3ccc(N4CCNCC4)nc3)cc21 [GSK126],reduction of global H3K27me3 levels,[1],3.4 fold
same,reduction of global H3K27me3 levels,[2],3.8 fold
same,reduction of global H3K27me3 levels,[3],1.4 fold
same,ratio between H3K27ac reads and total H3 reads,[4],increased
same,H3K27me3 levels (H3K27me3 reads normalized to total H3 reads),[5],consistent reduction
same,"H3K27me3 levels (Western blot, MNase digested chromatin)",[6],Consistent reductions
same,cell death,[7],2±15%
same,cell death,[8],15±10%
same,cell death,[9],56±11%
same,H3K27ac levels (Western blot),[10],increased
same,H3K27me3 levels (Western blot),[11],did not detect significant changes
CCOC(=O)c1ccnc(CNCC(=O)N(CC)CCN(C)C)c1 [KDM5-C70],H3K4me3 levels (Western blot),[12],increased
same,"H3K4me3 coverage, domains and peaks",[13],"increases H3K4me3 coverage and widens existing domains, while also generating new H3K4me3 peaks"
same,H3K4me3 peak intensity (tracks scaled by inferred global levels),[13]; quantitative normalization,increased peak intensity
CC1=NN(c2ccc(C(=O)O)cc2)C(=O)/C1=C\c1ccc(-c2cc(C)c(C)cc2[N+](=O)[O-])o1 [C646],ratio between H3K27ac reads and total H3 reads,[4],decreased
same,H3K27ac levels (Western blot),[10],reduced
same,H3K27me3 levels (Western blot),[11],did not detect significant changes
